Experimental data: the NIST ThermoML archive (doi:10.1021/je8001267)

Assay: wn = mass fraction of the nth substance listed
Settings: Liquid

Cl.N [ammonium chloride (NH4Cl)] + N
mass density [kg/m3]
Settings | 303.15 K | 313.15 K | 323.15 K | 333.15 K | 343.15 K | 353.15 K | 363.15 K | 373.15 K
10000 kPa, w1 = 0.1133 | 668.2 | 655.5 | 642.7 | 628.8 | 613.4 | 597.6 | 581.2 | 568.8
10000 kPa, w1 = 0.2224 | 729.3 | 716 | 707.1 | 694.9 | 682.5 | 669.2 | 654.5 | 644.4
10000 kPa, w1 = 0.3134 | 787.8 | 778.1 | 767.7 | 756.3 | 745.7 | 735.4 | 724.1 | 713.8
10000 kPa, w1 = 0.4285 | 833 | 825.9 | 817.4 | 809.5 | 801.9 | 793.4 | 784.2 | 776.9
10000 kPa, w1 = 0.5068 | 873.3 | 867.9 | 860 | 853.2 | 846 | 838 | 830.5 | 823.8
15000 kPa, w1 = 0.1133 | 673.3 | 660.5 | 648.4 | 634.7 | 620.3 | 605.7 | 588.8 | 577.2
15000 kPa, w1 = 0.2224 | 733.1 | 720.5 | 711.9 | 699.8 | 688.1 | 675.5 | 661.6 | 651.7
15000 kPa, w1 = 0.3134 | 791.5 | 783.6 | 772.6 | 761.1 | 751.6 | 741.5 | 731.7 | 721.3
15000 kPa, w1 = 0.4285 | 836.1 | 828.4 | 820.9 | 812.4 | 805.2 | 796.6 | 789.2 | 781.3
15000 kPa, w1 = 0.5068 | 877.7 | 871.7 | 864.7 | 857.9 | 850.6 | 844 | 837 | 830.3
20000 kPa, w1 = 0.1133 | 677.8 | 665.3 | 654.2 | 640.8 | 627.1 | 612.9 | 596.4 | 585.5
20000 kPa, w1 = 0.2224 | 736.6 | 725.1 | 715.8 | 704.3 | 692.5 | 680.2 | 667.3 | 657.3
20000 kPa, w1 = 0.3134 | 795.8 | 786.8 | 776.3 | 765.1 | 755 | 746.5 | 736.8 | 726.2
20000 kPa, w1 = 0.4285 | 838.2 | 831 | 823.4 | 814.4 | 807.6 | 799.5 | 792 | 784.1
20000 kPa, w1 = 0.5068 | 880.4 | 874.4 | 867.9 | 860.5 | 854.2 | 847.5 | 840.5 | 834
25000 kPa, w1 = 0.1133 | 682.2 | 670.1 | 658.7 | 646.7 | 633.1 | 619.7 | 603.4 | 593
25000 kPa, w1 = 0.2224 | 740.1 | 729.5 | 719.7 | 708.7 | 696.9 | 684.7 | 672.2 | 662.3
25000 kPa, w1 = 0.3134 | 798.5 | 789.7 | 779.4 | 768.2 | 758.3 | 750.3 | 741.5 | 730.7
25000 kPa, w1 = 0.4285 | 840.8 | 833.5 | 825.9 | 817.9 | 810 | 801.9 | 794.3 | 786.5
25000 kPa, w1 = 0.5068 | 883.2 | 876.6 | 870.6 | 863.1 | 857.4 | 850.1 | 843.5 | 837
30000 kPa, w1 = 0.1133 | 686.7 | 674.6 | 663.4 | 652.3 | 638.6 | 626.1 | 610.6 | 600.3
30000 kPa, w1 = 0.2224 | 743.8 | 734.2 | 723.4 | 712.9 | 701.2 | 689.2 | 677.3 | 667.2
30000 kPa, w1 = 0.3134 | 801.6 | 792.5 | 782.4 | 770.8 | 761.1 | 754 | 745.7 | 734.6
30000 kPa, w1 = 0.4285 | 842.9 | 835.6 | 827.4 | 820.4 | 812 | 804.2 | 796.4 | 788.7
30000 kPa, w1 = 0.5068 | 885.4 | 878.8 | 872.8 | 865.3 | 859.7 | 852.7 | 846 | 839.6
